From ChEMBL document CHEMBL1139867, “Discovery of the HCV NS3/4A protease inhibitor (1R,5S)-N-[3-amino-1-(cyclobutylmethyl)-2,3-dioxopropyl]-3- [2(S)-[[[(1,1-dimethylethyl)amino]carbonyl]amino]-3,3-dimethyl-1-oxobutyl]- 6,6-dimethyl-3-azabicyclo[3.1.0]hexan-2(S)-carboxamide (Sch 503034) II. Key steps in structure-based optimization” (J Med Chem, 2007)

Target: Hepatitis C virus serine protease, NS3/NS4A (Hepatitis C virus, UniProt A3EZI9+D2K2A8)
Test: Inhibition of HCV genotype H 1a NS3/4A protease
Assay type: protein-complex assay

Hepatitis C virus serine protease, NS3/NS4A, sequence (D2K2A8 whole entry): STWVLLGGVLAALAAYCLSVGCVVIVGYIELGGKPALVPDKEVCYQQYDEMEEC
Hepatitis C virus serine protease, NS3/NS4A, sequence (A3EZI9 whole entry): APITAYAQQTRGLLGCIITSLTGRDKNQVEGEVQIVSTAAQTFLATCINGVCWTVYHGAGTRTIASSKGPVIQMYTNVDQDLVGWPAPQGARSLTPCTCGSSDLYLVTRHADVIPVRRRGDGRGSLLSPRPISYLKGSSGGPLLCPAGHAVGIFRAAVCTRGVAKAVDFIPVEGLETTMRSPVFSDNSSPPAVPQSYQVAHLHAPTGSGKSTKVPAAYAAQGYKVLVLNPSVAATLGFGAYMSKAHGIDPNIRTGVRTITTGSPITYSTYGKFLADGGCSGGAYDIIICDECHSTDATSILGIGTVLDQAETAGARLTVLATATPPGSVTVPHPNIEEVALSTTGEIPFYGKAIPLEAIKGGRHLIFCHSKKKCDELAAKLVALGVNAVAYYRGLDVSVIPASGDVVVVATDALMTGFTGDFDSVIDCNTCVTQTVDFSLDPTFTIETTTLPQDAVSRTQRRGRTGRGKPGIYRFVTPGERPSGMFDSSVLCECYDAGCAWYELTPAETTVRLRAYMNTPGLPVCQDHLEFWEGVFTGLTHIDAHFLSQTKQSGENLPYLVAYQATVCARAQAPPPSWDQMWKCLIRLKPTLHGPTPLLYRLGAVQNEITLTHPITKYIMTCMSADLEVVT

Ki	Structure (SMILES)
14 nM	CC(C)(C)NC(=O)NC(C(=O)N1C[C@H]2[C@@H](C1C(=O)N[C@@H](CC1CCC1)C(=O)C(N)=O)C2(C)C)C(C)(C)C (stereo partly drawn)
> 12000 nM	CC(C)(C)OC(=O)NC(C(=O)N1C[C@H]2[C@@H](C1C(=O)N[C@@H](CC1CCCCC1)C(=O)C(N)=O)C2(C)C)C1CCCCC1 (stereo partly drawn)
400 nM	CC(C)C[C@H](NC(=O)C1[C@@H]2[C@H](CN1C(=O)C(NC(=O)OC(C)(C)C)C1CCCCC1)C2(C)C)C(=O)C(N)=O (stereo partly drawn)
140 nM	CC(C)(C)NC(=O)NC(C(=O)N1C[C@H]2[C@@H](C1C(=O)N[C@@H](CC1CCC1)C(=O)C(N)=O)C2(F)F)C(C)(C)C (stereo partly drawn)
150 nM	CC(C)(C)OC(=O)NC(C(=O)N1C[C@H]2[C@@H](C1C(=O)N[C@@H](CC1CCCC1)C(=O)C(N)=O)C2(C)C)C1CCCCC1 (stereo partly drawn)
19 nM	CC(C)(C)NC(=O)NC(C(=O)N1C[C@H]2[C@@H](C1C(=O)N[C@@H](CC1CCC1)C(=O)C(N)=O)C2(Cl)Cl)C(C)(C)C (stereo partly drawn)
68 nM	CC(=O)N[C@H](C(=O)NC(C(=O)N1C[C@H]2[C@@H](C1C(=O)N[C@@H](CC1CC1)C(=O)C(N)=O)C2(C)C)C1CCCCC1)C(C)C (stereo partly drawn)
115 nM	CC(C)(C)NC(=O)NC(C(=O)N1C[C@H]2[C@@H](C1C(=O)N[C@@H](CC1CC(F)(F)C1)C(=O)C(N)=O)C2(C)C)C(C)(C)C (stereo partly drawn)
5000 nM	CC(C)(C)NC(=O)NC(C(=O)N1CCC[C@H]1C(=O)N[C@@H](CC1CCC1)C(=O)C(N)=O)C(C)(C)C (stereo partly drawn)
360 nM	CCCC[C@H](NC(=O)C1[C@@H]2[C@H](CN1C(=O)C(NC(=O)OC(C)(C)C)C(C)(C)C)C2(C)C)C(=O)C(N)=O (stereo partly drawn)
38 nM	CC(=O)N[C@H](C(=O)NC(C(=O)N1C[C@H]2[C@@H](C1C(=O)N[C@@H](CC1CCC1)C(=O)C(N)=O)C2(C)C)C(C)(C)C)C(C)C (stereo partly drawn)
480 nM	CC(C)C[C@H](NC(=O)C1[C@@H]2[C@H](CN1C(=O)C(NC(=O)OC(C)(C)C)C(C)(C)C)C2(C)C)C(=O)C(N)=O (stereo partly drawn)
500 nM	CC(C)(C)NC(=O)NC(C(=O)N1C[C@@H]2OC(C)(C)C[C@@H]2C1C(=O)N[C@@H](CC1CCC1)C(=O)C(N)=O)C(C)(C)C (stereo partly drawn)
13 nM	CC(C)(C)NC(=O)NC(C(=O)N1C[C@H]2[C@@H](C1C(=O)N[C@@H](CC1CC1)C(=O)C(N)=O)C2(C)C)C(C)(C)C (stereo partly drawn)
25 nM	CC(C)(C)OC(=O)NC(C(=O)N1C[C@H]2[C@@H](C1C(=O)N[C@@H](CC1CCC1)C(=O)C(N)=O)C2(C)C)C1CCCCC1 (stereo partly drawn)
800 nM	COC(=O)NC(C(=O)N1C[C@H]2[C@@H](C1C(=O)N[C@@H](CC1CC1)C(=O)C(N)=O)C2(C)C)C1CCCCC1 (stereo partly drawn)
100 nM	CC(C)[C@H](NC(=O)NC(C)(C)C)C(=O)N1C[C@H]2[C@@H](C1C(=O)N[C@@H](CC1CC1)C(=O)C(N)=O)C2(C)C (stereo partly drawn)

Ki	Structure (SMILES)
100 nM	CC(C)(C)NC(=O)NC(C(=O)N1C[C@H]2[C@@H](C1C(=O)NC(C(=O)C(N)=O)C1CCC1)C2(C)C)C(C)(C)C (stereo partly drawn)
1800 nM	CC(C)(C)NC(=O)NC(C(=O)N1C[C@H]2[C@@H](C1C(=O)NC(C(=O)C(N)=O)C1CCCC1)C2(C)C)C(C)(C)C (stereo partly drawn)
230 nM	CCOC(=O)NC(C(=O)N1C[C@H]2[C@@H](C1C(=O)N[C@@H](CC1CC1)C(=O)C(N)=O)C2(C)C)C1CCCCC1 (stereo partly drawn)
220 nM	CCC[C@H](NC(=O)C1[C@@H]2[C@H](CN1C(=O)C(NC(=O)OC(C)(C)C)C(C)(C)C)C2(C)C)C(=O)C(N)=O (stereo partly drawn)
50 nM	CC(C)(C)NC(=O)NC(C(=O)N1C[C@H]2[C@@H](C1C(=O)N[C@@H](CC1CC1)C(=O)C(N)=O)C2(C)C)C1CCCCC1 (stereo partly drawn)
60 nM	CC(C)OC(=O)NC(C(=O)N1C[C@H]2[C@@H](C1C(=O)N[C@@H](CC1CC1)C(=O)C(N)=O)C2(C)C)C1CCCCC1 (stereo partly drawn)
1600 nM	CC(C)(C)NC(=O)NC(C(=O)N1C[C@H]2[C@@H](C1C(=O)NC(C(=O)C(N)=O)C1CC1)C2(C)C)C(C)(C)C (stereo partly drawn)
960 nM	CC(C)(C)NC(=O)NC(C(=O)N1C[C@@H]2OC(C)(C)[C@@H]2C1C(=O)N[C@@H](CC1CC1)C(=O)C(N)=O)C(C)(C)C (stereo partly drawn)
> 69000 nM	CC(C)(C)OC(=O)NC(C(=O)N1C[C@H]2[C@@H](C1C(=O)NC(C(=O)C(N)=O)C(C)(C)C)C2(C)C)C(C)(C)C (stereo partly drawn)
> 3300 nM	CC(C)(C)C[C@H](NC(=O)C1[C@@H]2[C@H](CN1C(=O)C(NC(=O)OC(C)(C)C)C(C)(C)C)C2(C)C)C(=O)C(N)=O (stereo partly drawn)
25 nM	CC(C)(C)OC(=O)NC(C(=O)N1C[C@H]2[C@@H](C1C(=O)N[C@@H](CC1CC1)C(=O)C(N)=O)C2(C)C)C1CCCCC1 (stereo partly drawn)
740 nM	CCC(NC(=O)C1[C@@H]2[C@H](CN1C(=O)C(NC(=O)OC(C)(C)C)C1CCCCC1)C2(C)C)C(=O)C(N)=O (stereo partly drawn)
15000 nM	CC(C)C[C@H](NC(=O)C(NC(=O)OC(C)(C)C)C(C)(C)C)C(=O)N[C@@H](CC1CCC1)C(=O)C(N)=O (stereo partly drawn)
54 nM	CCC[C@H](NC(=O)C1[C@@H]2[C@H](CN1C(=O)C(NC(=O)NC(C)(C)C)C1CCCCC1)C2(C)C)C(=O)C(N)=O (stereo partly drawn)
100 nM	CCC[C@H](NC(=O)C1[C@@H]2[C@H](CN1C(=O)C(NC(=O)OC(C)(C)C)C1CCCCC1)C2(C)C)C(=O)C(N)=O (stereo partly drawn)
50 nM	CC(C)(C)NC(=O)NC(C(=O)N1C[C@H]2[C@@H](C1C(=O)N[C@@H](CC1CC1(F)F)C(=O)C(N)=O)C2(C)C)C(C)(C)C (stereo partly drawn)
